From patent US7220775B2, “Compound useful for the treatment of neuropathic pain” (H. Lundbeck A/S, priority 2002, dated 2007) come the findings set out here.

For one test, the target named is T1, human GAL3 receptor (Homo sapiens, UniProt O60755).
T1 construct: expressed in transfected cells
T1 sequence (O60755 1-368): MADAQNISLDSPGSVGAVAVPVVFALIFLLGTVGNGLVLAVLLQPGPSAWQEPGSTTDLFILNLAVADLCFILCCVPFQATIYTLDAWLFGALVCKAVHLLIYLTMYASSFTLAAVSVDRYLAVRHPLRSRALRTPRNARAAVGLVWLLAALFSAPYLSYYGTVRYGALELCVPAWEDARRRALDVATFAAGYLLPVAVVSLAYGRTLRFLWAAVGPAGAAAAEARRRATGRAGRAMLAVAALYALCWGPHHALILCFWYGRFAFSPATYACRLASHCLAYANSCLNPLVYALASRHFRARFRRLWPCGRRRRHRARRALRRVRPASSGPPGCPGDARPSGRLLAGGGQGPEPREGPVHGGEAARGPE
The test is described as follows: Radioligand binding at cloned human GAL3 receptor. Here is the method: (§1) The present invention provides for a method of determining the binding affinity of a GAL3 antagonist, wherein the GAL3 antagonist is dissolved in a “suitable solvent”. A “suitable solvent” means one which permits the measurement of binding affinity of the GAL3 antagonist to the human GAL3 receptor at concentrations less than 1 μM, preferably less than 100 nM. Examples of solvents include, but are not limited to, DMSO, ethanol, N,N-dimethylacetamide, or water. For indolones, the preferred solvent is 3% DMSO (final concentration in the assay). For pyrimidines, the preferred solvent is 1% ethanol/0.09% polypuronic acid F-127 (final concentration in the assay). For any other type of compounds, the preferred solvent is the solvent which permits the measurement of binding affinity of a GAL3 antagonist at the lowest concentration. Once a suitable solvent is ascertained for the binding assay of the human GAL3 receptor, the same solvent is used in assays to determine the binding affinity for instance, at the GAL1 receptor.
(§2) LM(tk−) cells were stably transfected with the human GAL1 or GAL3 receptor. CHO cells were stably transfected with the human GAL2 receptor.
(§3) cDNAs for the human and rat GAL1, and human and rat GAL3 receptors were transfected with a G-418 resistant gene into the mouse fibroblast LM(tk−) cell line by a calcium phosphate transfection method (Cullen, 1987). Stably transfected cells were selected with G-418. Human and rat GAL2 receptors were similarly transfected into CHO cells.
(§4) Membranes were harvested from stably transfected LM(tk−) cells. Adherent cells were washed twice in ice-cold phosphate buffered saline (138 mM NaCl, 8.1 mM Na2HPO4, […] KCl, 1.2 mM KH2PO4, 0.9 mM CaCl2, 0.5 mM MgCl2, pH 7.4) and lysed by sonication in ice-cold sonication buffer (20 mM Tris-HCl, 5 mM EDTA, pH 7.7). […] Protein concentration was measured by the Bradford method (Bradford, 1976) using Pio-Rad Reagent, with bovine serum albumin as a standard. […]
(§5) Binding data were analyzed using nonlinear regression and statistical techniques available in the GraphPAD Prism package (San, Diego, Calif.). […]

For another test, the target named is T2, human GAL1 receptor (Homo sapiens, UniProt P47211).
T2 construct: expressed in transfected cells
T2 sequence (P47211 1-349): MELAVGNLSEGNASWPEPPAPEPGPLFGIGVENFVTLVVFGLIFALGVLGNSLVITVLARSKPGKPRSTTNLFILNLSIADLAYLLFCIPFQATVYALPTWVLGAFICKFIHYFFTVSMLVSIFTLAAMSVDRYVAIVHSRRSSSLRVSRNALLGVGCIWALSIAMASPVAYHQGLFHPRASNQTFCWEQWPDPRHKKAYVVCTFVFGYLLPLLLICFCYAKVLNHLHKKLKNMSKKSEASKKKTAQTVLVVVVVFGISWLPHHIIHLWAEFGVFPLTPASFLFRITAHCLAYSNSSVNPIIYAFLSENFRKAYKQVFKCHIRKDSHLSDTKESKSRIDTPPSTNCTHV
The test is described as follows: Radioligand binding at cloned human GAL1 receptor. As to conditions: read-out: Ki (nM) GalR1. The protocol:
as §1, §2, §3
Membranes were harvested from stably transfected LM(tk−) cells. Adherent cells were washed twice in ice-cold phosphate buffered saline (138 mM NaCl, 8.1 mM Na2HPO4, […] KCl, 1.2 mM KH2PO4, 0.9 mM CaCl2, 0.5 mM MgCl2, pH 7.4) and lysed by sonication in ice-cold sonication buffer (20 mM Tris-HCl, 5 mM EDTA, pH 7.7). Large particles and debris were cleared by low speed centrifugation (200×g, 5 min, 4° C.). Membranes were collected from the supernatant fraction by centrifugation (32,000×g, 18 min, 4° C.), washed with ice-cold hypotonic buffer, and collected again by centrifugation (32,000×g, 18 min, 4° C.). The final membrane pellet was resuspended by sonication into a small volume of ice-cold binding buffer (˜1 ml for every 5 plates: 10 mM NaCl, […] HEPES, 0.22 mM KH2PO4, 1.26 mM Cal2, 0.81 mM MgSO4, pH 7.4). Protein concentration was measured by the Bradford method (Bradford, 1976) using Pio-Rad Reagent, with bovine serum albumin as a standard. Membranes were held on ice for up to one hour and used fresh, or flash frozen and stored in liquid nitrogen. Membranes were prepared similarly from CHO cells. […]
as §5

The target in the next test is T3, human GAL2 receptor (Homo sapiens, UniProt O43603).
T3 construct: expressed in transfected cells
T3 sequence (O43603 1-387): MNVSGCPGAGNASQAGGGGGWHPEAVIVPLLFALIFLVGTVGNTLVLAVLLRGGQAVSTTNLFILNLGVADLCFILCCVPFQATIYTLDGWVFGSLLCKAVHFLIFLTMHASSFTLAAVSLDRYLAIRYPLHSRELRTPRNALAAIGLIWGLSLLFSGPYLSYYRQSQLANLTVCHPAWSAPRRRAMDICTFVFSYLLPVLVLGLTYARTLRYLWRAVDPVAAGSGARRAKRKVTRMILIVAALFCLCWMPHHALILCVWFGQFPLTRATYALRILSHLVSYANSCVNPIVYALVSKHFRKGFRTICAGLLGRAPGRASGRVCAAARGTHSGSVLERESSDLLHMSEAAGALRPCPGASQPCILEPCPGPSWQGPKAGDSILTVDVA
The test is described as follows: Radioligand binding at cloned human GAL2 receptor. As to conditions: read-out: Ki (nM) GalR2. Here is the method:
as §1, §2, §3, §4, §5

Where two headings read alike, the source gives them in different places.

On to `COc1ccc(N2CCN(c3nc(Nc4ccc(C)cc4)cc(N4CCCCC4)n3)CC2)c(OC)c1` [Example 28], for which the Ki (usually a dissociation constant, usually derived from enzyme kinetics or from competition with a known ligand) at human GAL3 receptor (Table 1, pyrimidines, read-out: Ki (nM) GalR3) was 270 nM; on human GAL1 receptor (Table 1, pyrimidines) it was above 5000 nM; on human GAL2 receptor (Table 1, pyrimidines), above 5000 nM.
For `CN(C)c1cc(N)nc(N(c2ccccc2)c2ccc(Cl)cc2)n1` [Example 58], the Ki is 783 nM at human GAL3 receptor (Table 2, pyrimidines, read-out: Ki (nM) GalR3); above 5000 nM on human GAL1 receptor (Table 2, pyrimidines); above 5000 nM at human GAL2 receptor (Table 2, pyrimidines).
Turning to `CN(C)c1cc(NC2C3CC4CC(C3)CC2C4)nc(N2CCN(Cc3ccccc3)CC2)n1` (stereo not shown) [Example 137], the Ki at human GAL3 receptor (Table 3a, pyrimidines, read-out: Ki (nM) Gal3) is 124 nM.
